Values quoted from earlier work in EP4223883A1, “PROCESS FOR PRODUCING TRYPTAMINES” (Infinit Biosystems, priority 2022, dated 2023).

Key:
[1] = test system: PSI M, N-methyltransferase, Psilocybe cubensis, Uniprot: P0DPA9
[2] = target: T1, PSI K, 4-hydroxytryptamine kinase, Psilocybe cubensis, Uniprot: P0DPA8 (Psilocybe cubensis, UniProt P0DPA8); details: substrate taken from the text, not given; Km of the cofactor (ATP) considered equal
T1 sequence (P0DPA8 1-362): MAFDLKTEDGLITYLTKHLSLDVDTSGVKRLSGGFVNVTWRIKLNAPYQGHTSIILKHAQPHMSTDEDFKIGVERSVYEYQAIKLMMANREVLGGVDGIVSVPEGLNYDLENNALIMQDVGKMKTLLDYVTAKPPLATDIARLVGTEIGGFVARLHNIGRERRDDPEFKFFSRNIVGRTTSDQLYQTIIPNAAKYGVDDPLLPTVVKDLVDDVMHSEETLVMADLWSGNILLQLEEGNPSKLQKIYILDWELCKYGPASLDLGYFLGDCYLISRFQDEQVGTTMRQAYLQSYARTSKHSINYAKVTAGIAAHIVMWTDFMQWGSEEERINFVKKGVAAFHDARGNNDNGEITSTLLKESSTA

[3] = test system: T2, PSI H, Tryptamine 4-monooxygenase, Psilocybe cubensis, Uniprot: A0A286LF02; details: substrate taken from the text, not given; Km of the cofactor (NADPH) considered equal
T2 sequence (A0A286LF02 20-507): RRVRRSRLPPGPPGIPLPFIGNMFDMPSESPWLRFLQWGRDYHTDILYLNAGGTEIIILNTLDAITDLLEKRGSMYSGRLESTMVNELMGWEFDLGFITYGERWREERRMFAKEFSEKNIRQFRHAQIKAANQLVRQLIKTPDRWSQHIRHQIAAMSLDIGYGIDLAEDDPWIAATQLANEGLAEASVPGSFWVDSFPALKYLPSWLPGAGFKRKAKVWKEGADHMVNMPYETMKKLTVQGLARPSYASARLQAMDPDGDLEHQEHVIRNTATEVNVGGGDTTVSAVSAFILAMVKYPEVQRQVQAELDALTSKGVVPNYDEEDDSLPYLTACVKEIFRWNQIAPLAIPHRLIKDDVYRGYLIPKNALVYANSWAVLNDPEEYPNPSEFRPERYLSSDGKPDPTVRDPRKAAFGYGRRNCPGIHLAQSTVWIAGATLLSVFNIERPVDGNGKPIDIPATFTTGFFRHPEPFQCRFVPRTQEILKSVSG

NCCc1c[nH]c2cccc(OP(=O)(O)O)c12 [norbaeocystin]
Km [1]: 165 µM

NCCc1c[nH]c2cccc(O)c12 [4-hydroxytryptamine]
Km [2]: 80 µM

NCCc1c[nH]c2ccccc12 [tryptamine, Tryptamine]
Km [3]: 220 µM
